Experimental data as given in patent publication US8883723B2, “Conjugate of insulin and vitamin B12 for oral delivery” (Syracuse University, priority 2007, dated 2014).
Like-named read-outs stand apart in the source and are kept apart here.

Key:
obese subjects = conditions: cited from earlier work
[1] = tested on: STZ-induced diabetic rat model; assay: Blood glucose response after oral gavage in the STZ-induced diabetic rat model; assay type: in vivo, Sprague Dawley rats; conditions: STZ-induced diabetic rats
Source text: To examine the in vivo efficacy of the B12-insulin conjugate, blood from the STZ-induced diabetic rat model was sampled by means of a jugular catheter prior to and subsequent to oral administration of the B12-insulin conjugate and compared to the blood glucose response following administration of an equimolar solution of free insulin (FIG. 8A and B).
Animals. Male Sprague Dawley rats (323±36; ±SD; n=12) were purchased pre-catheterised (Jugular vein) from Charles River Laboratories (Wilmington, Mass.), acclimatised for three days and then rendered insulin-deficient via infusion of streptozotocin (STZ; 60 mg/kg body weight) dissolved in citrate buffer and used within 15 min of preparation. Blood glucose concentration was assessed over four days to ensure fasting levels of greater than 14 mmol/L (>250 mg/dl) were reached. Animals were housed individually and maintained on a 12-hr light-dark (0600-1800 h) cycle with free access to food (standard laboratory chow; Scotts' Distributing, Inc) and water. Maintenance of animals and experimental protocols were conducted in accordance with federal regulations and approved by the Syracuse University Institutional Animal Care and Use Committee (Protocol Number SU 09-102)
Animal experimental design. On the day of experimentation, animals were fasted for 4 hours prior to the sampling of blood (50 μl) and the B12-insulin compound (100 nm/ml) was subsequently administered via oral gavage (1 ml). Blood was then sampled at 30-, 60-, 90-, 120-, 150-, 180-, 210-, 240-, 270- and 300-min after the administration of the conjugate for the calculation of area under the blood glucose curve (YSI 2300 STAT PLUS, YSI Incorporated, Yellow Springs, Ohio). Two control groups were used in this set of experiments; the first received a molar-equivalent concentration (100 nm) of free insulin (1 ml) while the second control group received the same quantity of the B12-insulin conjugate as the experimental group, however the conjugate was dissolved in 10^5-fold excess B12.

Intrinsic Factor = assay: Spectrophotometric Intrinsic Factor in vitro binding studies; conditions: 50 mM HEPES
Procedure: Intrinsic Factor binding studies. Intrinsic Factor (10 mg, […]) was dissolved in 1 mL dH2O. A 50 μL aliquot of B12-insulin was added to 950 μL of 50 mM HEPES buffer. Baseline was run against HEPES buffer and the first scan of B12-insulin was taken without Intrinsic Factor. A 5 μL aliquot of Intrinsic Factor was added to the B12-insulin, mixed and a second scan was taken. This procedure was repeated for five additions of Intrinsic Factor.

[2] = Melting circular dichroism studies (222 nm); assay type: physicochemical; conditions: 50 mM HEPES
Procedure: Melting circular dichroism (CD) studies. Circular dichroism (CD) was performed on an Aviv model 202 spectrometer set at 222 nm with a 1 mL Quartz cuvette. All samples were prepared in 50 mM HEPES buffer (pH 9.7) with 25 mM carbonate and 10 mM EDTA and heated from 25 to 80° C. in 1° increments then cooled from 80 to 25° C. in the same increment. Sample concentrations ranged from 1.00 μM to 1.35 μM. […] All results were duplicated per batch and run for every batch prior to in vivo testing.

[3] = humans; cited from earlier work
humans [4] = conditions: cited from earlier work
humans [5] = conditions: cited from earlier work; for decrease in caloric intake: total dose 2 nmol/m^2 body-surface area, 90-min infusion
[6] = in vivo; cited from earlier work
[7] = native insulin, Tietze et al. 1953; cited from earlier work
[8] = oral-enteric route; cited from earlier work

## CC(C)CC(N(C)C)C1(c2ccc(Cl)cc2)CCC1 (stereo not drawn) [sibutramine]
Obese subjects
  mean weight loss: 10%
  reduction of acute caloric intake: 16%

## B12-insulin conjugate: Bovine insulin conjugated using CDI at B strand lysine29 to the 5′-hydroxyl group of B12; carbamate linked conjugate
[1]; oral administration
  reduction of blood glucose levels compared with free insulin: more effective than free insulin
  time of nadir in the blood glucose response: 4 h
[1]; oral gavage 1 ml of 100 nm/ml, 300 min, vs equimolar free insulin, p=0.056
  greater decrease in the area under the blood glucose curve compared to free insulin: 4.7 fold
Intrinsic Factor
  binding to Intrinsic Factor: recognizing the B12-insulin conjugate
Intrinsic Factor; listed as insulin-B12 conjugate
  binding to Intrinsic Factor: successful binding
[2]
  melting temperature (circular dichroism): ~65 °C
[2]; listed as B12-insulin
  melting temperature (circular dichroism): 55 °C

## Cyanocobalamin [B12]
[3]
  uptake capacity: 1-2 μg per dosage

## GLP-1(7-36)amide: Glucagon-like peptide-1 (7-36) amide, endogenous incretin peptide
Humans [4]; infusion, meta-analysis
  average acute reduction of food intake: 11.7%
Humans [4]; prandial subcutaneous injections for 5 days, obese but otherwise healthy subjects
  weight loss: 0.55 kg

## PYY3-36: truncated form of Peptide YY, endogenous appetite suppressing peptide
Humans [5]; lean humans, i.v. infusion 0.8 pmol/kg/min, free-choice buffet meal 2 hours after end of infusion
  reduction in calorie intake: approximately 36%
Humans [5]; lean subjects
  decrease in caloric intake: 31%
Humans [5]; obese subjects
  decrease in caloric intake: 30%
[6]
  time for plasma level to return to baseline after end of infusion: ≤ 30 min

## insulin
[7]
  half-life: 10 min
[8]
  bioavailability: about 5%
